For 21 compounds, IC50 results are on record in US10087188B2, “Benzamide imidazopyrazine Btk inhibitors” (MERCK SHARP & DOHME CORP., priority 2014, dated 2018).

One assay concerns HeLa cells. Description: [3H] Adenosine uptake assay. The following applies: accumulation of tritiated adenosine into HeLa cells, compound concentration range 10 μM to 0.032 nM, read-out: ADU inhibition IC50 (adenosine uptake inhibition potency). The class given is cell-based. An outline of the steps:
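HeLa cells in HBSS + 5% FBS preincubated 30 min at ambient temperature with compound (0.25% DMSO), then [3H]adenosine (500 nM stock) added for 60 min. Uptake measured by scintillation proximity counting; IC50 from 4-parameter fit of counts vs log concentration.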

Assay [1] addresses BTK enzyme (recombinant full-length BTK, hBTK) (Homo sapiens (Human), UniProt Q06187). Description: Btk enzyme activity assay, LANCE TR-FRET. The class given is biochemical. The following applies: 50 pM hBTK, 2 μM biotin-A5-peptide, 25 μM ATP; 60 minute compound & enzyme incubation; read-out: BTK binding IC50. On the procedure: Btk Enzyme Activity Assay Methods
BTK enzymatic activity was determined with the LANCE (Lanthanide Chelate Excite) TR-FRET (Time-resolved fluorescence resonance energy transfer) assay. […] After 60 minutes incubation with detection reagents, reaction plates were read on a PerkinElmer EnVision plate reader using standard TR-FRET protocol.
For orientation: In TR-FRET formats the signal depends on donor and acceptor labels being close together.

Each structure is given as a SMILES string. Like-named read-outs stand apart in the source and are kept apart here.

Sequence of BTK enzyme (recombinant full-length BTK, hBTK) (Q06187 whole entry): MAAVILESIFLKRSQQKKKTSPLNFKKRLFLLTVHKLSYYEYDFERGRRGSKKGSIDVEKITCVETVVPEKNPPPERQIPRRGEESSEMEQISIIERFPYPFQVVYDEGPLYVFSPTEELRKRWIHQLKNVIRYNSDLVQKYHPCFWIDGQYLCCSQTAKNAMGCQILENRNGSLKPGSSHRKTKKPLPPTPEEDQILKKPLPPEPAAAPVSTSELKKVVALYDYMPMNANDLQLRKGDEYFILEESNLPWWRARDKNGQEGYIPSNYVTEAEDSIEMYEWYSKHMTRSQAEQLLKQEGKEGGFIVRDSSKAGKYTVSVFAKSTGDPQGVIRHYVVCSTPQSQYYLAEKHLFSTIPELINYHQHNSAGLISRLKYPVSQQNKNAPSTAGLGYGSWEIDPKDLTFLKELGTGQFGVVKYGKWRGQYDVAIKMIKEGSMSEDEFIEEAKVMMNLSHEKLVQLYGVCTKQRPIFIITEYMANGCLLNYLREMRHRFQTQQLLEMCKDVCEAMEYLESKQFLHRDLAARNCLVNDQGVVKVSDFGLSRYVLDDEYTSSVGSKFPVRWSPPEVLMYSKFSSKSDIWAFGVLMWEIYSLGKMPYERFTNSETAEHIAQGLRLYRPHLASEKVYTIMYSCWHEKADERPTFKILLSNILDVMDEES

As for `Nc1nccn2c(-c3ccc(F)c(C(=O)O)c3)nc(-c3ccc(C(=O)Nc4cc(C(F)(F)F)ccn4)cc3)c12` [Example 24, 5-[8-amino-1-(4-{[4-(trifluoromethyl)pyridin-2-yl]carbamoyl}phenyl)imidazo[1,5-a]pyrazin-3-yl]-2-fluorobenzoic acid], the IC50 with HeLa cells (Homo sapiens, HeLa) was 10000 nM; in assay [1], 1 nM.
The like results for `CC1(C(=O)O)CCC(N2CCC[C@@H](c3nc(-c4ccc(C(=O)Nc5cc(C(F)(F)F)ccn5)cc4F)c4c(N)nccn34)C2)CC1` (stereo partly drawn) [Example 182, 4-{(3R)-3-[8-amino-1-(2-fluoro-4-{[4-(trifluoromethyl)pyridin-2-yl]carbamoyl}phenyl)imidazo [1,5-a]pyrazin-3-yl]piperidin-1-yl}-1-methylcyclohexanecarboxylic acid] were, in that order, 179 nM and 1.9 nM.
Turning to `CC(C)(C(=O)O)N1CC(=O)N2C[C@H](c3nc(-c4ccc(C(=O)Nc5cc(C(F)(F)F)ccn5)cc4)c4c(N)nccn34)CC[C@H]2C1` [Example 43, 2-{(7R,9aS)-7-[8-amino-1-(4-{[4-(trifluoromethyl)pyridin-2-yl]carbamoyl}phenyl)imidazo[1,5-a]pyrazin-3-yl]-4-oxooctahydro-2H-pyrido[1,2-a]pyrazin-2-yl}-2-methylpropanoic acid], the IC50 worked out at 4190 nM in the assay with HeLa cells (Homo sapiens, HeLa) and 0.41 nM in assay [1].
As to `CCOc1cc(C(=O)Nc2cc(C3CC3)ccn2)cc(F)c1-c1nc([C@@]2(C)CC[C@](C)(C(=O)O)C2)n2ccnc(N)c12` [Example 123, (1S,3S)-3-(8-amino-1-{4-[(4-cyclopropylpyridin-2-yl)carbamoyl]-2-ethoxy-6-fluorophenyl}imidazo [1,5-a]pyrazin-3-yl)-1,3-dimethylcyclopentane carboxylic acid], the IC50 in the assay on HeLa cells (Homo sapiens, HeLa) worked out at 10000 nM; in assay [1], 0.57 nM.
The corresponding values for `CCOc1cc(C(=O)Nc2cc(C(F)(F)F)ccn2)ccc1-c1nc(C23CCC(C(=O)O)(CC2)C3)n2ccnc(N)c12` [Example 103, 4-[8-amino-1-(2-ethoxy-4-{[4-(trifluoromethyl)pyridin-2-yl]carbamoyl}phenyl)imidazo[1,5-a]pyrazin-3-yl]bicyclo[2.2.1] heptane-1-carboxylic acid] are 1880 nM and 0.52 nM.
The like results for `CCOc1cc(C(=O)Nc2cc(C(F)(F)F)ccn2)ccc1-c1nc(C23CCC(C(=O)O)(CC2)C2CC23)n2ccnc(N)c12` (stereo not drawn) [Example 100, 5-[8-amino-1-(2-ethoxy-4-{[4-(trifluoromethyl)pyridin-2-yl]carbamoyl}phenyl)imidazo[1,5-a]pyrazin-3-yl]tricyclo[3.2.2.0~2,4~] nonane-1-carboxylic acid] were, in that order, 4720 nM and 0.54 nM.
The corresponding values for `CCOc1cc(C(=O)Nc2cc(C(F)(F)F)ccn2)c(F)cc1-c1nc(C2(C)CCC(C)(C(=O)O)CC2)n2ccnc(N)c12` (stereo not drawn) [Example 120, 4-[8-amino-1-(2-ethoxy-5-fluoro-4-{[4-(trifluoromethyl)pyridin-2-yl]carbamoyl}phenyl)imidazo[1,5-a]pyrazin-3-yl]-1,4-dimethylcyclohexane-carboxylic acid] are 10000 nM and 4 nM.
Regarding `Nc1nccn2c(-c3ccc(C(=O)O)o3)nc(-c3ccc(C(=O)Nc4cc(C(F)(F)F)ccn4)cc3)c12` [Example 28, 5-[8-amino-1-(4-{[4-(trifluoromethyl)pyridin-2-yl]carbamoyl}phenyl)imidazo[1,5-a]pyrazin-3-yl]furan-2-carboxylic acid], the IC50 in the assay on HeLa cells (Homo sapiens, HeLa) turned out to be 10000 nM; in assay [1], 2.4 nM.
The like results for `CCOc1cc(C(=O)Nc2cc(C(F)(F)F)ccn2)ccc1-c1nc([C@@]2(C)CC[C@@](C)(C(=O)O)C2)n2ccnc(N)c12` [Example 86, (1R,3S)-3-[8-amino-1-(2-ethoxy-4-{[4-(trifluoromethyl)pyridin-2-yl]carbamoyl}phenyl)imidazo[1,5-a]pyrazin-3-yl]-1,3-dimethylcyclopentane carboxylic acid] were, in that order, 10000 nM and 4.2 nM.
Turning to `N#Cc1ccnc(NC(=O)c2ccc(-c3nc(C45C6C7C4C4C5C6C74C(=O)O)n4ccnc(N)c34)c(F)c2)c1` (stereo not drawn) [Example 76, 4-(8-amino-1-(4-((4-cyanopyridin-2-yl)carbamoyl)-2-fluorophenyl)imidazo [1,5-a]pyrazin-3-yl)cubane-1-carboxylic acid], the half-inhibitory concentration (IC50) with HeLa cells (Homo sapiens, HeLa) was 666 nM; in assay [1], 0.41 nM.
Turning to `CCOc1cc(C(=O)Nc2cc(C(F)(F)F)ccn2)ccc1-c1nc([C@@H]2CC[C@H](C(C)C)[C@H](C(=O)O)C2)n2ccnc(N)c12` [Example 98, (1R,2R,5R)-5-[8-amino-1-(2-ethoxy-4-{[4-(trifluoromethyl)pyridin-2-yl]carbamoyl}phenyl)imidazo[1,5-a]pyrazin-3-yl]-2-(1-methylethyl) cyclohexane-carboxylic acid], the IC50 came to 8770 nM with HeLa cells (Homo sapiens, HeLa) and 4 nM in assay [1].
The corresponding values for `COc1cc(C(=O)Nc2cc(C(F)(F)F)ccn2)cc(F)c1-c1nc([C@@H]2CC[C@](C)(C(=O)O)C2(C)C)n2ccnc(N)c12` [Example 115, (1S,3R)-3-[8-amino-1-(2-fluoro-6-methoxy-4-{[4-(trifluoromethyl)pyridin-2-yl]carbamoyl}phenyl)imidazo[1,5-a]pyrazin-3-yl]-1,2,2-trimethylcyclopentane carboxylic acid] are 8840 nM and 0.26 nM.
The corresponding values for `C[C@@]1(C(=O)O)CC[C@@](C)(c2nc(-c3ccc(C(=O)Nc4cc(C(F)(F)F)ccn4)cc3F)c3c(N)nccn23)C1` [Example 136, (1R,3R)-3-[8-amino-1-(2-fluoro-4-{[4-(trifluoromethyl)pyridin-2-yl]carbamoyl}phenyl)imidazo[1,5-a]pyrazin-3-yl]-1,3-dimethylcyclopentane carboxylic acid] are 3420 nM and 0.17 nM.
The corresponding values for `CN1CC[C@@H](c2nc(-c3ccc(C(=O)Nc4cc(C(F)(F)F)ccn4)cc3)c3c(N)nccn23)C[C@H]1C(=O)O` [Example 82, (2S,4R)-4-[8-amino-1-(4-{[4-(trifluoromethyl)pyridin-2-yl]carbamoyl}phenyl)imidazo[1,5-a]pyrazin-3-yl]-1-methylpiperidine-2-carboxylic acid] are 1730 nM and 1.2 nM.
Take `C[C@]1(C(=O)O)CC[C@H](N2CCO[C@@H](c3nc(-c4ccc(C(=O)Nc5cc(C(F)F)ccn5)cc4)c4c(N)ncc(Cl)n34)C2)CC1` (stereo in doubt) [Example 196, trans-4-{(2R)-2-[8-amino-5-chloro-1-(4-{[4-(difluoromethyl)pyridin-2-yl]carbamoyl}phenyl)imidazo [1,5-a]pyrazin-3-yl]morpholin-4-yl}-1-methylcyclohexanecarboxylic acid]: the IC50 was determined as 4440 nM in the assay on HeLa cells and 7.5 nM in assay [1].
Regarding `CC(C)(C(=O)O)C1CCC(c2nc(-c3ccc(C(=O)Nc4cc(C(F)(F)F)ccn4)cc3)c3c(N)nccn23)C1` (stereo not drawn) [Example 96, 2-{3-[8-amino-1-(4-{[4-(trifluoromethyl)pyridin-2-yl]carbamoyl}phenyl)imidazo[1,5-a]pyrazin-3-yl]cyclopentyl}-2-methylpropanoic acid], the results for the concentration for half-maximal inhibition (IC50) (in the assay on HeLa cells; in assay [1]) were 10000 nM and 4 nM, respectively.
On to `CCOc1cc(C(=O)Nc2cc(C(F)(F)F)ccn2)ccc1-c1nc([C@]2(C)CC[C@@](C)(C(=O)O)C2)n2ccnc(N)c12` [Example 85, (1R,3R)-3-[8-amino-1-(2-ethoxy-4-{[4-(trifluoromethyl)pyridin-2-yl]carbamoyl}phenyl)imidazo[1,5-a]pyrazin-3-yl]-1,3-dimethylcyclopentane carboxylic acid], for which the IC50 with HeLa cells (Homo sapiens, HeLa) was determined as 10000 nM; in assay [1], 1.4 nM.
The like results for `CC1(C(=O)O)CCC(c2nc(-c3ccc(C(=O)Nc4cc(C5CC5)ccn4)cc3F)c3c(N)ncc(Cl)n23)CC1` (stereo not drawn) [Example 164, 4-(8-amino-5-chloro-1-{4-[(4-cyclopropylpyridin-2-yl)carbamoyl]-2-fluorophenyl}imidazo [1,5-a]pyrazin-3-yl)-1-methylcyclohexane-carboxylic acid] were, in that order, 6170 nM and 33 nM.
The like results for `CC1(C(=O)O)CCC(c2nc(-c3ccc(C(=O)Nc4cc(C(F)(F)F)ccn4)cc3)c3c(N)ncc(Cl)n23)CC1` (stereo not drawn) [Example 162, 4-[8-amino-5-chloro-1-(4-{[4-(trifluoromethyl)pyridin-2-yl]carbamoyl}phenyl)imidazo[1,5-a]pyrazin-3-yl]-1-methylcyclohexane-carboxylic acid] were, in that order, 5540 nM and 2.3 nM.
For `CCOc1cc(C(=O)Nc2cc(C(F)(F)F)n(C)n2)ccc1-c1nc([C@H]2CC[C@](C(=O)O)(C(C)C)C2)n2ccnc(N)c12` [Example 58, (1R,3S)-3-[8-amino-1-(2-ethoxy-4-{[1-methyl-5-(trifluoromethyl)-1H-pyrazol-3-yl]carbamoyl}phenyl)imidazo[1,5-a]pyrazin-3-yl]-1-(1-methylethyl) cyclopentane-carboxylic acid], the IC50 with HeLa cells (Homo sapiens, HeLa) worked out at 10000 nM; in assay [1] it was 27.6 nM.
In the case of `C[C@H]1CO[C@@H](c2nc(-c3ccc(C(=O)Nc4cc(C5CC5)ccn4)cc3F)c3c(N)ncc(Cl)n23)CN1[C@H]1CC[C@](C)(C(=O)O)CC1` [Example 209, trans-4-[(2R,5S)-2-(8-amino-5-chloro-1-{4-[(4-cyclopropylpyridin-2-yl)carbamoyl]-2-fluorophenyl}imidazo[1,5-a]pyrazin-3-yl)-5-methylmorpholin-4-yl]-1-methylcyclohexanecarboxylic acid], the IC50 was 3160 nM in the assay on HeLa cells (Homo sapiens, HeLa) and 0.76 nM in assay [1].

In general, IC50 refers to the concentration that gives 50% inhibition.
